Laboratory results as given in patent publication US20080089845A1, “METHODS FOR DETERMINING EFFECTIVE DOSES OF FATTY ACID AMIDE HYDROLASE INHIBITORS IN VIVO” (N.V. Organon, priority 2006, published 2008).

Columns and labels:
FAAH = target: T1, FAAH (Mus musculus, UniProt O08914); experiment: Escalating oral dose study in mice, brain FAAH activity; type: in vivo
T1 construct: brain FAAH Activity was also evaluated in an escalating oral dose study in mice; from tissue; host or cells: mouse brain
T1 sequence (O08914 1-579): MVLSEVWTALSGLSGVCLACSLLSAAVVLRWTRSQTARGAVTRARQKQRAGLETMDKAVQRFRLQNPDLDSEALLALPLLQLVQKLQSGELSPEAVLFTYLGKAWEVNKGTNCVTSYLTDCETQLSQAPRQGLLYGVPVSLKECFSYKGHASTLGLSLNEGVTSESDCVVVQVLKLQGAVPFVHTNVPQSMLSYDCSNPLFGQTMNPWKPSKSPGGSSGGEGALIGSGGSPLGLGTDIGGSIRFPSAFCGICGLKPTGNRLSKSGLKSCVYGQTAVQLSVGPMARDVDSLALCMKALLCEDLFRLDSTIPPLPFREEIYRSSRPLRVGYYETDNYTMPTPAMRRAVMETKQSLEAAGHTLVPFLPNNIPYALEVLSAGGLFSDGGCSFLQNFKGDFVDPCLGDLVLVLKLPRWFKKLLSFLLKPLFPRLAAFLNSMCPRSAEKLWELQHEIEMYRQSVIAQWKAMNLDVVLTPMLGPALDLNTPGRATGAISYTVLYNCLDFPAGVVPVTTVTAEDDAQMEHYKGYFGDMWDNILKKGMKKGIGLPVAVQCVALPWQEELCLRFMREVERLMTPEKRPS
Procedure: Finally, the correlation between increases in plasma OEA levels and brain FAAH Activity was also evaluated in an escalating oral dose study in mice. Inhibition of FAAH activity was maximal at 50 mg/kg p.o. and partial 10 mg/kg p.o. (FIG. 12). Increases in plasma OEA levels directly correlated with brain FAAH inhibition (FIG. 13).

plasma OEA levels = experiment: Time course of plasma OEA levels after oral administration to cynomolgus monkeys; type: in vivo
Procedure: Afterwards, a time course of plasma OEA levels was determined for each subject by obtaining a plasma sample at 0.5, 1, 2, 4, 8, 12, and 24 hours post-administration.

[1] = test system: OEA and PEA levels in plasma; experiment: 28-day toxicokinetic (TK) study in rodents, plasma OEA and PEA levels; type: in vivo, rat; conditions: rodent TK study, 50, 275 and 1500 mg/kg
From the text: We carried out toxicokinetic (TK) studies in rodents. […] AEA was included in this assay to examine whether basal or elevated levels of AEA could be detected.

OEA plasma levels = experiment: Plasma/serum OEA and PEA levels by LC-MS/MS after oral administration in rats; type: in vivo; conditions: rat, 30 mg/kg p.o. vs 10 mg/kg p.o.
Procedure: At 0, 1, 2, 4, 8, 12, and 24 hours post-administration, animals were sacrificed to collect serum and brain tissue samples. For each time point, FAAH activity was determined in brain tissue homogenates by essentially the same method as that described in Fegley et al. (2005), J. Pharm. and Exp. Ther., 313:352-358. We observed complete FAAH inhibition at 10 mg/kg and partial FAAH inhibition at 1 mg/kg (FIG. 1).
Serum OEA and PEA levels were determined by LC-MS/MS. As shown in FIGS. 2 (A-B), plasma levels of both OEA and PEA were highly correlated with FAAH inhibition in the brain (R^2=0.9459 and 0.929, respectively). In addition, changes in OEA plasma levels correlated with changes in anandamide (AEA) levels in the brain (FIG. 3; R^2=0.9363), and changes in AEA brain levels correlated with brain FAAH inhibition (FIG. 4; R^2=0.9996). […] AUCs were determined as the sum of the area under the plasma concentration curve of the analyte measured (minus the endogenous level), or as a % FAAH inhibition versus time curve from time zero to the last time point collected by the trapezoidal rule.

Structure (SMILES): NC(=O)c1cccc(-c2cccc(OC(=O)NC3CCCCC3)c2)c1 [KDS-4103]
- Inhibition of FAAH activity in brain (FAAH; 10 mg/kg p.o.): partial
- Inhibition of FAAH activity in brain (FAAH; 50 mg/kg p.o.): maximal
- inhibition of FAAH activity in primates, concluded from plasma OEA (plasma OEA levels; 50-1500 mg/kg): highly effective
- time of peak plasma OEA levels (plasma OEA levels; each dose of 50-1500 mg/kg): four
- plasma OEA levels after the peak (plasma OEA levels; each dose of 50-1500 mg/kg, up to 24 hours): remained elevated at all subsequent time points examined
- FAAH inhibition inferred from OEA and PEA increases [1]: complete across all doses
- Increases in OEA and PEA levels across the dose range [1]: similar
- plasma levels of OEA at 30 mg/kg compared with 10 mg/kg (OEA plasma levels): did not increase plasma levels of OEA above those observed at 10 mg/kg
